Assay results as given in patent publication US6526316B2, “Iontophoresis method” (Hisamitsu Pharmaceutical Co., Inc., priority 1997, dated 2003).

Legend:
[1] = Serum hPTH(1-34) concentration after repeated intradermal injection (Reference Example 1); assay type: in vivo, rat; conditions: intradermal injection three times at 1 hour intervals, 1 μg/kg or 5 μg/kg per dose
Experimental: Female SD rats (12 weeks old) were ovariectomized and intradermally injected with an aqueous solution of hPTH(1-34) three times at 1 hour intervals at a one time administration dose of 1 μg/kg or 5 μg/kg. Concentration of hPTH(1-34) in serum of the rats was measured by radio immunoassay.

[2] = Serum hPTH(1-34) concentration during transdermal iontophoresis (Example 1); assay type: in vivo, rat; conditions: male SD rats; iontophoresis anode patch 200 μg or 400 μg; 0.1 mA/cm^2, 30 min current and 45 min rest repeated three times; radio immunoassay; FIG. 3
Experimental: Hair on the abdominal skin of male, SD rats (7 weeks old) was shaved off. To the shaved part was attached the iontophoresis apparatus which comprises an anode patch containing 200 μg or 400 μg of hPTH(1-34) and a cathode patch without hPTH(1-34), as mentioned above. The apparatus was connected to an electric generator (50 kHz and 50% duty), and an electric current application using constant transport current (0.1 mA/cm^2) for 30 minutes and a 45-minute rest interval (corresponding to blood concentration of one pulse) was repeated three times. During the repetitions, blood was taken periodically, and concentration of hPTH(1-34) in serum was measured by radio immunoassay.

maximum blood concentrations vs dose [1]: proportional to the injected doses | blood concentration profile of hPTH(1-34) in serum ([1]; ovariectomized female SD rats, radio immunoassay, FIG. 1): three sharp pulses | blood concentration profile of hPTH(1-34) in serum [2]: three sharp peaks
SMILES: CC[C@H](C)[C@H](NC(=O)[C@H](CCC(=O)O)NC(=O)[C@H](CO)NC(=O)[C@@H](NC(=O)[C@@H](N)CO)C(C)C)C(=O)N[C@@H](CCC(N)=O)C(=O)N[C@@H](CC(C)C)C(=O)N[C@@H](CCSC)C(=O)N[C@@H](Cc1cnc[nH]1)C(=O)N[C@@H](CC(N)=O)C(=O)N[C@@H](CC(C)C)C(=O)NCC(=O)N[C@@H](CCCCN)C(=O)N[C@@H](Cc1cnc[nH]1)C(=O)N[C@@H](CC(C)C)C(=O)N[C@@H](CC(N)=O)C(=O)N[C@@H](CO)C(=O)N[C@@H](CCSC)C(=O)N[C@@H](CCC(=O)O)C(=O)N[C@@H](CCCN=C(N)N)C(=O)N[C@H](C(=O)N[C@@H](CCC(=O)O)C(=O)N[C@@H](Cc1c[nH]c2ccccc12)C(=O)N[C@@H](CC(C)C)C(=O)N[C@@H](CCCN=C(N)N)C(=O)N[C@@H](CCCCN)C(=O)N[C@@H](CCCCN)C(=O)N[C@@H](CC(C)C)C(=O)N[C@@H](CCC(N)=O)C(=O)N[C@@H](CC(=O)O)C(=O)N[C@H](C(=O)N[C@@H](Cc1cnc[nH]1)C(=O)N[C@@H](CC(N)=O)C(=O)N[C@@H](Cc1ccccc1)C(=O)O)C(C)C)C(C)C [hPTH(1-34)]
